Measured values published in patent US6929935B2, “Gluconobacter oxydans 2-ketoreductase enzyme and applications thereof” (Bristol-Myers Squibb Company, priority 2001, dated 2005).

System: G. oxydans 2-ketoreductase
Test: Reduction of alkylketones with extract of E. coli expressing recombinant 2-ketoreductase, analysed by gas chromatography
Format: biochemical, Gluconobacter oxydans
Conditions: NAD+/formate/formate dehydrogenase, 28° C., 16 hr; for % Conversion: 2 mg 2-ketone, 0.5 ml E. coli pBMS2000-KR extract, ketone to 2-alcohol
Procedure: Analysis of enantiomeric alcohols by gas chromatography: Samples were extracted in ethyl acetate and dried over anhydrous magnesium sulfate. Samples were then applied onto a Astec Chiraldex G-TA, gamma cyclodextrin column (20 m×0.25 mm×0.125 μm thickness; Astec, Whippany, N.J.) equipped with a guard column (Hewlett-Packard Ultra II, 5% phenyl methyl silicone, 5 m×0.32 mm×0.17 μm thickness; Agilent Technologies, Palo Alto, Calif.). The temperature of the injector was set at 150° C. and the detector of the chromatograph (Hewlett-Packard 5890) was set at 200° C. Detection was carried out with a flame ionization detector (Agilent Technologies). The separation was carried out by a gradient under the following conditions: 28° C. for 15 minutes, 5° C./min to 50° C. and hold 5 minutes. The helium flow rate was maintained at 22 cm/min. Under these conditions, the retention times for S-2-pentanol, R-2-pentanol, and 2-pentanone were 10.85, 11.67 and 17.84 minutes respectively.
The reaction contained 0.18 mg NAD+, 30 mg sodium formate, 0.3 units formate dehydrogenase (Sigma, St. Louis, Mo.), 2 mg 2-pentanone, and 0.5 ml of extract from an E. coli (BL21(DE3)) culture containing the pBMS2000-KR plasmid and expressing the ketoreductase. Alternatively, P. pastoris formate dehydrogenase (see S. Goldberg et al.: U.S. Provisional Patent Application Ser. No. 60/341,934 filed Dec. 19, 2001; U.S. Provisional Application Ser. No. 60/375,530 filed Apr. 25, 2002; and U.S. patent application Ser. No. 10/320,300; the contents of which are hereby incorporated by reference in their entirety) can be substituted for the commercial formate dehydrogenase. Cell extracts were obtained as follows: 2 g recombinant cells was suspended in 10 ml Buffer A (50 mM Tris-HCl, pH 7.5, 1 mM CaCl2, and 1 mM MgCl2). The resuspended cells were sonicated for 2 min (20 sec pulse “on” and 30 sec pulse “off”) using Model 550 Sonic Dismembrator (Misonix Inc., Farmingdale, N.Y.). The resulting mixture was centrifuged for 15 min at 8000 rpm at 4° C. The supernatant was removed and used for reduction reactions. The reactions were carried out in a culture tube at 28° C. with shaking at 200 rpm. After 16 hr, samples were quenched with 2 ml of ethyl acetate and analyzed by gas chromatography (described earlier).
The reactions contained 0.18 mg NAD+, 30 mg sodium formate, 0.3 units formate dehydrogenase (purchased from Sigma), 2 mg 2-ketones, and 0.5 ml of extract from the E. coli culture containing the pBMS2000-KR plasmid and expressing the ketoreductase (described above). The reactions were carried out in a culture tube at 28° C. on a shaker at 200 rpm. The end of 16 hr, samples were quenched with 2 ml of ethyl acetate and analyzed by gas chromatography (described earlier).

| SMILES | % Conversion [%] | reduction of the substrate to 2-pentanol using recombinant enzyme (2 mg substrate, 0.5 ml E. coli BL21(DE3) pBMS2000-KR extract) |
| --- | --- | --- |
| CCCCCCCCC(C)=O [2-Decanone] | >98 | – |
| CCCCCC(C)=O [2-Heptanone] | >98 | – |
| CCCCCCC(C)=O [2-Octanone] | >98 | – |
| CCCC(C)=O [2-pentanone] | – | complete reduction |
